Measurements reported in patent publication EP4494649A1, “PEPTIDES FOR USE IN THE TREATMENT OF AXONAL DAMAGE IN DIABETES” (Universität zu Köln, priority 2023, dated 2025).

Legend:
diabetic sciatic nerve [1] = assay: Anatomical axon regeneration after sciatic nerve crush (SNC) in streptozotocin-induced T1DM mice; type: in vivo; details: strep-induced T1DM mice, intrathecal injection 1 day prior and on the day of the SNC, 3 dpi
Method: (§1) To model type 1 diabetes mellitus (T1DM), male and female wild-type Ola received a single intraperitoneal injection of 100 mg/kg streptozotocin (strep) or vehicle (veh; 0.1 M citrate buffer, pH 4.5) at 4-6 weeks of age. The efficacy of the treatment was confirmed by assessing blood glucose levels 1 week after injection. Strep mice with over 250 mg/dl of blood glucose were considered diabetic. Thus, diabetes was induced 2 months before sciatic nerve crush.
All surgical procedures on mice adhered to respective animal care guidelines and were approved by the local authorities (LANUV Recklinghausen). For intrathecal AAV2.1 (CRMP2T514A-HA, GFP, tdTomato, and Cre-GFP: titer: ≥7·1012 vg/ml, Addgene), a 5 mm skin incision was made above the L4-L5 spines. The muscle tissue was carefully spread, and 2.5 µl of the viral solution was injected into the cerebrospinal fluid between the L4 and L5 spines using a Nanoject II injector (Drummond Scientific) with three consecutive 833 nl injections with a speed of 23 nl/s and 20 s intervals between injections. The skin was closed using 6-0 sutures. Transduction was performed 2 weeks before sciatic nerve crush (SNC). SNC was performed as described in Gobrecht et al., Nature Communications 5, 4561 (2014) and Gobrecht et al., (2016). In brief, animals were anesthetized by inhalation anaesthesia with 1.5% isoflurane in oxygen, and a skin incision of 5 mm was made above the gluteal region. […]
For assessment of anatomical regeneration, the sciatic nerves were isolated 3 days post-injury (dpi). […] Regeneration of sympathetic fibers was quantified with immunostaining against tyrosine hydroxylase (TH; Novus, 1:500; RRID:AB_10077691).
To verify the regeneration-stimulating effect of the peptide, axonal regeneration was determined in vivo. […] Anatomical regeneration was assessed 3 days post-injury (dpi).
To verify the regeneration-stimulating effect in vivo, axonal regeneration was determined. […] Anatomical regeneration was assessed 3 days post-injury (dpi).

CRMP2 = assay: Inhibitory CRMP2 phosphorylation (pCRMP2^T514) in DRG of diabetic mice, Western blot and immunostaining; type: in vivo
Method: as §1
The intrathecal application of anti-peptide against CDK5 (AP-CDK5) and P5 was performed with the above-described method to assess anatomical regeneration. […]
DRG (L3-L5) or 3 mm of the sciatic nerves proximal to the injury site from three mice per group were homogenized by sonication in 100 µl lysis buffer (20 mM Tris-HCl pH 7.5, 10 mM KCl, 250 mM sucrose, 10 mM NaF, 1mM DTT, 0.1 mM Na3VO4, 1% Triton X-100, 0.1% SDS, 1% protease inhibitors (Merck Millipore) and phosphatase inhibitors (Roche)). […] All antibodies were detected with anti-rabbit or anti-mouse IgG secondary antibodies conjugated to HRP (1:80,000; Sigma). […]
[…] Antibodies were detected with anti-rabbit, anti-goat, or anti-mouse secondary antibodies conjugated to Dylight-405,_Alexa-594, or Alexa-488.
Figure 1H illustrates the timeline of experiments. […] After SNC, SSI and von Frey tests were assessed before the day of SNC, and days 1, 4, 7, 9, 14, 21, 28, and 35 thereafter. […]

diabetic sciatic nerve [2] = assay: Static sciatic index (SSI), functional motor recovery after SNC in diabetic mice; type: in vivo
Method: (§2) The intrathecal application of anti-peptide against CDK5 (AP-CDK5) and P5 was performed with the above-described method to assess anatomical regeneration. Either 2 µl AP-CDK5 or P5 (each 4 mg/ml) or vehicle (DMSO) was injected the day before SNC and the day of SNC or the day of SNC and the day after. For analyses of functional recovery, AP-CDKS was injected daily at 400 µg/kg from the day of SNC until the mice were sacrificed. AP-CDKS and P5 (Genescript) were fused to a TAT-sequence for cell membrane penetration and had the following sequence: AP-CDKS: […] and (SEQ ID No. 3) P5: […] (SEQ ID No. 13).
Motor recovery after SNC was determined by calculating the SSI as described in Baptista AF et al., 2007, J Neurosci Methods 161, 259-264 and Gobrecht et al., Nature Communications 5, 1-10 (2014). […] Toe spreading on contralateral (C, left) and ipsilateral (I, right) sides relative to the SNC was assessed by measuring paw_length (PL) and the_distance between the first and fifth toe (FF). The SSI was then calculated using the previously described formula: SSI = 101.3((IFF-CFF)/CFF)-54.03((IPL-CPL)/CPL)-9.5 in as described in Baptista AF et al., 2007, J Neurosci Methods 161, 259-264.
Data represent mean SSI±SEM per experimental group. Statistical significances of intergroup differences were evaluated using two-way ANOVA followed by the Holm Sidak post hoc test. […]

diabetic sciatic nerve [3] = assay: von Frey test, functional sensory recovery after SNC in diabetic mice; type: in vivo; details: i.p. daily 400 µg/kg from the day of SNC, Figure 1M
Method: as §2
Sensory recovery after SNC was determined at the indicated time points after SNC with the von Frey filament test as described in Gobrecht et al., 2014 and Gobrecht et al., (2016). Tests were performed at the same time of day by the same experimenter. Mice were placed on an elevated metal grid (pore size: 2 mm) and allowed to acclimate for 15 min before testing. […] Statistical significances of intergroup differences were evaluated using two-way ANOVA followed by the Holm Sidak post hoc test.
Figure 1H illustrates the timeline of experiments. […] After SNC, SSI and von Frey tests were assessed before the day of SNC, and days 1, 4, 7, 9, 14, 21, 28, and 35 thereafter.

Cdk5-p25 = details: embryonal neuronal cells; cited from earlier work
Cdk5-p35 = details: embryonal neuronal cells; cited from earlier work

Sequence	anatomical regeneration of motor fibers (diabetic sciatic nerve [1]; ChAT staining)	anatomical regeneration of sensory fibers (diabetic sciatic nerve [1]; SCG10 staining)	anatomical regeneration of sympathetic fibers (diabetic sciatic nerve [1]; TH staining)	CRMP2 inactivation in neurons (pCRMP2^T514 immunostaining) (CRMP2; DRG (L6), strep-treated mice, i.p. injection, tissue harvested after completing functional recovery, Figure 1N)	CRMP2 inactivation in DRG neurons (pCRMP2^T514 Western blot) (CRMP2; L4-L6 DRG, strep T1DM mice, i.p. every day from the SNC until sacrifice, Figures 1I, 1J)	functional motor recovery assessed by static sciatic index (SSI) (diabetic sciatic nerve [2]; i.p. daily 400 µg/kg from the day of SNC, Figure 1L)	axon regeneration (pictures of the injured paw) (diabetic sciatic nerve [2]; i.p. daily from SNC, before and 1, 7, 14, 21, 28, 35 dpi, Figure 1K)	functional sensory recovery determined by the von Frey test (diabetic sciatic nerve [3])	deregulated Cdk5-p25 activity (Cdk5-p25)	activity of endogenous Cdk5-p35 (Cdk5-p35)
LVESCKEAFWDRCLSVINLMSSKMYARAARRAARR (REGION 1..35: note = Fusion peptide) [AP-CDK5]	accelerated	accelerated	accelerated	strongly reduced	strongly reduced	provide a functional effect	accelerated	provide a functional effect	–	–
KEAFWDRCLSVINLMSSKMLQINA (listed as Homo sapiens) [p5]	–	–	–	–	–	–	–	–	inhibited	did not affect
